The source of these data is patent US20260176270A1 (Exelixis, Inc., priority 2022, published 2026).

Molecules are shown by their SMILES. Like-named read-outs stand apart in the source and are kept apart here.

One assay has as its target T1, PKMYT1 (Homo sapiens, UniProt Q99640).
T1 construct: PKMYT1 (93 kD, full length, N-terminal GST tag from Signal Chem); GST (N); purchased Signal Chem
T1 sequence (Q99640 1-499): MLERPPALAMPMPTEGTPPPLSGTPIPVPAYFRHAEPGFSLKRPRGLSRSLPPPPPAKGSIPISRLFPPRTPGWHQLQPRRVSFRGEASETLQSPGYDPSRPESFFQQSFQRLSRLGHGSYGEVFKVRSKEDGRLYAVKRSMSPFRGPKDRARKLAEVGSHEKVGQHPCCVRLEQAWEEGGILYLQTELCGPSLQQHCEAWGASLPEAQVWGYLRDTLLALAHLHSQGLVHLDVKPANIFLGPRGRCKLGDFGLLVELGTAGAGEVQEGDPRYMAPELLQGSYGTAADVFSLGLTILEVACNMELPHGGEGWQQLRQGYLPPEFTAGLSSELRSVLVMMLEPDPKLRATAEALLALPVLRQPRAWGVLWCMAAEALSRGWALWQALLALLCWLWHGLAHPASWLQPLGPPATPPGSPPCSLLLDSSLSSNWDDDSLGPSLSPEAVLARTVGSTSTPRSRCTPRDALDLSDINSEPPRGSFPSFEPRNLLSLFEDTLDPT
As to the kind of experiment: ADP-Glo PKMYT1 ATP-depletion assay. Particulars: 50 nM PKMYT1, 13.3 nM CDK1, read-out: Biochemical IC50. The procedure, abridged: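 Full-length N-terminal GST-tagged PKMYT1 (50 nM) with GST-CDK1 (13.3 nM) as substrate and 88 µM ATP, in Hepes buffer with MgCl2, MnCl2, DTT and BSA; DMSO <1%. Incubated 120 min at RT. ADP formed was quantified by ADP-Glo luminescence and used to derive biochemical IC50.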

The test system of assay [1] is phosphorylation of CDK1 at Thr14 in HCC1806 cells. As to the kind of experiment: Cell lysate AlphaLISA assay measuring inhibition of phosphorylation of CDK1 Thr14. Format: cell-based. Particulars: read-out: Cellular IC50. The procedure, abridged:
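HCC1806 cells seeded overnight, then treated 4 h at 37 °C, 5% CO2 with compounds in DMSO; washed and lysed, lysates frozen overnight at −80 °C. CDK1 Thr14 phosphorylation read by AlphaLISA SureFire Ultra; data normalized to DMSO (0% inhibition) and 3 μM reference compound to give IC50.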

A word on the IC50: it is the concentration at which inhibition is half-maximal. As to `Cc1cc(CO)ccc1-c1c(N)c(C(N)=O)nc2cccnc12` [Compound 221], the IC50 is ≥ 5000 nM at PKMYT1 and ≥ 5000 nM in assay [1] (Homo sapiens, HCC1806, 4 h).
In the case of `Cc1ccc(O)cc1-c1c(N)c(C(N)=O)cc2nccnc12` [Compound 123, 7-Amino-8-(5-hydroxy-2-methylphenyl)quinoxaline-6-carboxamide], the half-maximal inhibitory concentration (IC50) at PKMYT1 was 50 to 500 nM; in assay [1] (4 hours), 1000 to 5000 nM.
For the molecule `COc1ccc2nc(C(N)=O)c(N)c(-c3cc(O)ncc3C)c2n1` [Compound 315], the IC50 at PKMYT1 was ≥ 5000 nM; in assay [1] (Homo sapiens, HCC1806, 4 h), ≥ 5000 nM.
In the case of `Cc1ccc(O)c(C)c1-c1c(N)c(C(N)=O)cc2nc(N3CCC4(COC4)C3)cnc12` [Compound 339], the IC50 at PKMYT1 lay in the range of 50 to 500 nM; in assay [1] (Homo sapiens, HCC1806, 4 h), 1000 to 5000 nM.
With `Cc1c(Cl)cncc1C1=c2ncccc2=NC(C(N)=O)C1N` (centres unmarked) [Compound 240], the figures for the half-maximal inhibitory concentration (IC50) (on PKMYT1; in assay [1] (4 hours)) were < 50 nM and 50 to 500 nM, respectively.
Regarding `Cc1ccc(O)c(C)c1-c1c(N)c(C(N)=O)nc2c(C)cccc12` [Compound 27, 3-Amino-4-(3-hydroxy-2,6-dimethylphenyl)-8-methylquinoline-2-carboxamide], the concentration for half-maximal inhibition (IC50) lay within 500 to 1000 nM at PKMYT1 and 1000 to 5000 nM in assay [1] (Homo sapiens, HCC1806, 4 h).
`NC(=O)c1nc2cccnc2c(-c2cccc3[nH]nc(F)c23)c1N` (atropisomer, axis not shown) [Compound 304]: the concentration for half-maximal inhibition (IC50) (on PKMYT1; in assay [1] (4 hours)) was ≥ 5000 nM in each case.
Take `Cc1c(O)cccc1-c1c(N)c(C(N)=O)cc2nc(C)c(=O)n(C)c12` (atropisomer, axis not shown) [Compound 170]: the IC50 (on PKMYT1; in assay [1] (4 hours)) was ≥ 5000 nM in each case.
In the case of `Cc1n[nH]c2cccc(-c3c(N)c(C(N)=O)cc4nccnc34)c12` (single isomer, unassigned) [Compound 118, (M)-7-Amino-8-(3-methyl-1H-indazol-4-yl)quinoxaline-6-carboxamide], the IC50 fell in the range of 50 to 500 nM on PKMYT1 and 1000 to 5000 nM in assay [1] (4 hours).
On to `Cc1c(O)cccc1-c1c(N)c(C(N)=O)cc2nc(O)c(C(F)(F)F)nc12` [Compound 137], for which the IC50 is 1000 to 5000 nM at PKMYT1 and ≥ 5000 nM in assay [1] (Homo sapiens, HCC1806, 4 h).
On the same counts, the results for `NC(=O)c1nc2cccnc2c(-c2cncnc2C(F)(F)F)c1N` [Compound 253] are 1000 to 5000 nM and ≥ 5000 nM.
On the same counts, the results for `NC(=O)c1nc2cccnc2c(-c2cccc3c2CCN3)c1N` [Compound 160] are ≥ 5000 nM and 500 to 1000 nM.
On the same counts, the results for `Cc1c(O)cccc1-c1c(N)c(C(N)=O)nc2ccccc12` [Compound 18, 3-Amino-4-(3-hydroxy-2-methylphenyl)quinoline-2-carboxamide] are 50 to 500 nM and 1000 to 5000 nM.
For `NC(=O)c1cc2nccnc2c(-c2cc(O)cnc2Cl)c1N` [Compound 122, 7-Amino-8-(2-chloro-5-hydroxy-3-pyridyl)quinoxaline-6-carboxamide], the IC50 at PKMYT1 was 1000 to 5000 nM; in assay [1] (Homo sapiens, HCC1806, 4 h), ≥ 5000 nM.
On the same counts, the results for `CCOc1ccc2nc(C(N)=O)c(N)c(-c3cccc(O)c3C)c2n1` [Compound 154] are < 50 nM and 50 to 500 nM.
Take `Cc1c(O)cccc1-c1c(N)c(C(N)=O)cc2nccnc12` (single isomer, unassigned) [Compound 89, (M)-7-amino-8-(3-hydroxy-2-methylphenyl)quinoxaline-6-carboxamide]: the IC50 is 1000 to 5000 nM at PKMYT1 and ≥ 5000 nM in assay [1] (4 hours).
For the molecule `Cc1ccc(O)c(C)c1-c1c(N)c(C(N)=O)nc2ccc(F)cc12` [Compound 20, 3-Amino-6-fluoro-4-(3-hydroxy-2,6-dimethylphenyl)quinoline-2-carboxamide], the IC50 on PKMYT1 is 50 to 500 nM; in assay [1] (4 hours), 1000 to 5000 nM.
On the same counts, the results for `Cc1c(O)cccc1-c1c(N)c(C(N)=O)cc2nc(C(F)(F)F)cnc12` [Compound 96, 7-Amino-8-(3-hydroxy-2-methylphenyl)-3-(trifluoromethyl)quinoxaline-6-carboxamide] are 50 to 500 nM and 1000 to 5000 nM.
In the case of `NC(=O)c1nc2cccnc2c(-c2cccc3c2CC(=O)N3)c1N` [Compound 293], the half-inhibitory concentration (IC50) at PKMYT1 is ≥ 5000 nM; in assay [1] (Homo sapiens, HCC1806, 4 h), ≥ 5000 nM.
As to `Cc1c(O)cccc1-c1c(N)c(C(N)=O)cc2nc(C)c(=O)n(C)c12` (atropisomer, axis not shown) [Compound 171], the IC50 on PKMYT1 was in the range of 50 to 500 nM; in assay [1] (4 hours), 1000 to 5000 nM.
On the same counts, the results for `Cc1ccc(O)c(C)c1-c1c(N)c(C(N)=O)nc2ccc(C(F)(F)F)cc12` (single isomer, unassigned) [Compound 41, (P)-3-amino-4-(3-hydroxy-2,6-dimethylphenyl)-6-(trifluoromethyl)quinoline-2-carboxamide] are ≥ 5000 nM and ≥ 5000 nM.
On the same counts, the results for `Cc1ccc2[nH]nc(F)c2c1-c1c(N)c(C(N)=O)cc2nccnc12` [Compound 176] are 500 to 1000 nM and ≥ 5000 nM.
With `Cc1c(O)cccc1-c1c(N)c(C(N)=O)cc2nc(C(F)(F)F)cnc12` [Compound 189], the IC50 on PKMYT1 lay in the range of 50 to 500 nM; in assay [1] (4 hours) it was 500 to 1000 nM.
As to `Cc1ccc(O)c(C)c1-c1c(N)c(C(N)=O)nc2ccc(Cl)cc12` [Compound 36, 3-Amino-6-chloro-4-(3-hydroxy-2,6-dimethyl-phenyl) quinoline-2-carboxamide], the IC50 on PKMYT1 was 50 to 500 nM; in assay [1] (Homo sapiens, HCC1806, 4 h), 1000 to 5000 nM.
In the case of `Cc1ccc2[nH]nc(F)c2c1-c1c(N)c(C(N)=O)cc2nccnc12` (atropisomer, axis not shown) [Compound 299], the IC50 (at PKMYT1; in assay [1] (4 hours)) was ≥ 5000 nM throughout.
Consider `Cc1c(O)cccc1-c1c(N)c(C(N)=O)cc2ncc(=O)n(C)c12` [Compound 202], for which the IC50 was 1000 to 5000 nM on PKMYT1 and ≥ 5000 nM in assay [1] (Homo sapiens, HCC1806, 4 h).
With `COc1cncc(-c2c(N)c(C(N)=O)nc3cccnc23)c1C` [Compound 153], the results for the IC50 (at PKMYT1; in assay [1] (4 hours)) were 50 to 500 nM and 500 to 1000 nM, respectively.
On the same counts, the results for `COc1nc2c(-c3cccc(O)c3C)c(N)c(C(N)=O)cc2nc1C` (atropisomer, axis not shown) [Compound 224] are 1000 to 5000 nM and ≥ 5000 nM.
On the same counts, the results for `Cc1c(-c2c(N)c(C(N)=O)cc3nccnc23)ccc(F)c1O` (atropisomer, axis not shown) [Compound 307] are 1000 to 5000 nM and ≥ 5000 nM.
On the same counts, the results for `Cc1ccc(O)c(C)c1-c1c(N)c(C(N)=O)cc2cccnc12` (single isomer, unassigned) [Compound 65, (M)-7-Amino-8-(3-hydroxy-2,6-dimethyl-phenyl)quinoline-6-carboxamide] are 500 to 1000 nM and ≥ 5000 nM.
With `Cc1cnc2c(-c3cccc(O)c3C)c(N)c(C(N)=O)cc2n1` (atropisomer, axis not shown) [Compound 209], the values for the concentration for half-maximal inhibition (IC50) (at PKMYT1; in assay [1] (4 hours)) were < 50 nM and 50 to 500 nM, respectively.
`Cc1ccc(O)c(C)c1-c1c(N)c(C(N)=O)cc2cccnc12` [Compound 64, 7-Amino-8-(3-hydroxy-2,6-dimethylphenyl)quinoline-6-carboxamide]: the IC50 at PKMYT1 was in the range of 50 to 500 nM; in assay [1] (Homo sapiens, HCC1806, 4 h) it was 50 to 500 nM.
In the case of `Cc1ccc(O)c(C)c1-c1c(N)c(C(N)=O)cc2nc(-c3cnn(C)c3)cnc12` [Compound 251], the IC50 is < 50 nM at PKMYT1 and 500 to 1000 nM in assay [1] (Homo sapiens, HCC1806, 4 h).
As to `NC(=O)c1nc2cccnc2c(-c2cccc3[nH]nc(F)c23)c1N` (atropisomer, axis not shown) [Compound 305], the IC50 at PKMYT1 lay within 50 to 500 nM; in assay [1] (4 hours), 1000 to 5000 nM.
